Laboratory results: US10124065B2, “Lipids and lipid compositions for the delivery of active agents” (Novartis AG, priority 2013, dated 2018)

Assay: Polydispersity index (PDI) of lipid nanoparticle (dynamic light scattering)
Format: physicochemical
Protocol: Unless indicated otherwise, all PDIs referred to herein are the PDI of the fully formed nanoparticle, as measured by dynamic light scattering on a Malvern Zetasizer. The nanoparticle sample was diluted in phosphate buffered saline (PBS) so that the count rate was approximately 200-400 kcts. The data is presented in Tables 4 and 5 as a weighted average of the intensity measure.

SMILES: CCCCCCCCCCOC(=O)CCCCCCCOc1cc(CN(C)C)cc(OCCCCCCCC(=O)OCCCCCCCCCC)c1 [Example 57, didecyl 8,8′-((5-((dimethylamino)methyl)-1,3-phenylene)bis(oxy))dioctanoate]
- PDI (FVII siRNA LNP, Chol/DSPC/PEG-DMG, molar ratio 45/44/9/2): 0.03
- PDI (FVII siRNA LNP, Chol/DSPC/S010, molar ratio 45/44/9/2): 0.059
- PDI (PLK1-424 siRNA LNP, Chol/DSPC/S010 45/44/9/2): 0.038
- PDI (leptin mRNA lipid nanoparticles): 0.102
